Assay results published in ChEMBL document CHEMBL3301361, “Experimental in vitro DMPK and physicochemical data on a set of publicly disclosed compounds”.
Values after ≈ are worked out from the molar mass of the structure shown. Residues, ends and D or L forms follow the SMILES beside them.

Columns and labels:
[1] = in vitro; conditions: human, liver microsomes
[2] = in vitro; conditions: hepatocytes
[3] = physchem; conditions: octan-1-ol/water
[4] = in vitro; conditions: human, plasma
[5] = physchem; conditions: pH 7.4 buffer

O=C(NCCCCCCNCCc1ccc(O)c2nc(O)sc12)Nc1ccccc1
microsomal CLint [1]: 11 µL/min/mg
hepatocyte CLint [2]: 98 µL/min/1e6 cells

Oc1nc2c(O)ccc(CCNCCOCCCOCCc3ccccc3)c2s1
microsomal CLint [1]: 56 µL/min/mg
hepatocyte CLint [2]: > 150 µL/min/1e6 cells

CN(CCc1ccc(O)c2[nH]c(=O)sc12)CCN(C)C(=O)CCOCCc1ccccc1
microsomal CLint [1]: > 150 µL/min/mg
hepatocyte CLint [2]: > 150 µL/min/1e6 cells

CC(=O)N1N=C(c2ccc(Br)cc2)CC1c1ccc(C)cc1 (stereo unspecified)
microsomal CLint [1]: 41.7 µL/min/mg
hepatocyte CLint [2]: 30.9 µL/min/1e6 cells

COc1ccc2ncc(C#N)c(CCN3CCC(NCc4cc5c(cn4)OCS5)CC3)c2c1
logD ([3]; pH 7.4, LogD7.4): 2.55
fraction unbound at 5 h ([4]; PPB): 0.089
hepatocyte CLint [2]: 72.4 µL/min/1e6 cells

CCC(NC(=O)Nc1cc(Cl)ccc1Cl)(C(F)(F)F)C(F)(F)F
microsomal CLint [1]: 7.41 µL/min/mg
hepatocyte CLint [2]: 22.9 µL/min/1e6 cells

CCn1c(SCC(=O)Nc2cc(C)on2)nnc1-c1ccccc1
microsomal CLint [1]: 32.4 µL/min/mg
hepatocyte CLint [2]: > 150 µL/min/1e6 cells

O=C(NCc1ccccc1)c1cc(-c2ccco2)on1
microsomal CLint [1]: 70.8 µL/min/mg
hepatocyte CLint [2]: 138 µL/min/1e6 cells

CC(NC(=O)c1cc(O)nc2ccccc12)c1ccccc1 (stereo unspecified)
logD ([3]; pH 7.4): 2.2
fraction unbound at 5 h [4]: 0.36
hepatocyte CLint [2]: 5.25 µL/min/1e6 cells

O=C(c1cccc(Cl)c1Cl)N1CCN(c2ccccn2)CC1
microsomal CLint [1]: > 150 µL/min/mg
hepatocyte CLint [2]: > 150 µL/min/1e6 cells

O=C(NS(=O)(=O)c1ccccc1Cl)c1ccc[nH]1
microsomal CLint [1]: < 3 µL/min/mg
hepatocyte CLint [2]: 3.31 µL/min/1e6 cells

CCOC(=O)CN(c1ccccc1C)S(=O)(=O)c1ccc(Cl)cc1
microsomal CLint [1]: 94 µL/min/mg
hepatocyte CLint [2]: > 150 µL/min/1e6 cells

Cc1cccc(NC(=O)Nc2cccc3ccccc23)c1
microsomal CLint [1]: 70.8 µL/min/mg
hepatocyte CLint [2]: 91.2 µL/min/1e6 cells

O=c1cc(-c2cccnc2)[nH]c2cc(Cc3ccccc3)ccc12
logD ([3]; pH 7.4, LogD7.4): 3.46
solubility thermodynamic [5]: 1.7 µM (≈ 0.531 µg/mL)
fraction unbound at 5 h ([4]; PPB): 0.0051
hepatocyte CLint [2]: 50 µL/min/1e6 cells

O=c1cc(-c2cccnc2)[nH]c2cc(C(O)c3ccccc3)ccc12 (stereo unspecified)
solubility thermodynamic [5]: 288 µM (≈ 94.7 µg/mL)
fraction unbound at 5 h ([4]; PPB): 0.0268
hepatocyte CLint [2]: 46 µL/min/1e6 cells

C[C@H]1CN(Cc2cc(Cl)ccc2CCC(=O)O)CCN1C(=O)Cc1ccccc1
microsomal CLint [1]: < 3 µL/min/mg
hepatocyte CLint [2]: < 3 µL/min/1e6 cells

Cc1ccc(CO)cc1N(C)c1ccnc(Nc2cc(N3CCOCC3)cc(N3CCOCC3)c2)n1
logD ([3]; pH 7.4, LogD7.4): 2.94
solubility thermodynamic [5]: 195 µM (≈ 95.7 µg/mL)
fraction unbound at 5 h ([4]; PPB): 0.0818
hepatocyte CLint [2]: 31.6 µL/min/1e6 cells

CC(C)S(=O)(=O)c1ccc(-c2cnc(N)c(C(=O)Nc3ccccc3)n2)cc1
microsomal CLint [1]: 10 µL/min/mg
hepatocyte CLint [2]: 20.9 µL/min/1e6 cells

CCOc1ccc2oc(C(=O)NC(CCSC)c3nc4ncccc4[nH]3)c(C)c2c1 (stereo unspecified)
microsomal CLint [1]: > 150 µL/min/mg
hepatocyte CLint [2]: 46 µL/min/1e6 cells

O=c1[nH]c2c(O)ccc([C@@H](O)CNCCCSCCNCCc3ccccc3Cl)c2s1
microsomal CLint [1]: 11 µL/min/mg
hepatocyte CLint [2]: 12 µL/min/1e6 cells

CC(C)CNc1nc(N2CCN(CC3CCCOC3)CC2)ncc1C(=O)NCc1ccccc1 (stereo unspecified)
microsomal CLint [1]: 95.5 µL/min/mg
hepatocyte CLint [2]: 89.1 µL/min/1e6 cells

COc1cc2c(ccc(=O)n2CCN2CCC(NCc3cc4c(cn3)OCCO4)CC2)cn1
logD ([3]; pH 7.4, LogD7.4): 0.68
fraction unbound at 5 h ([4]; PPB): 0.166
hepatocyte CLint [2]: 35.5 µL/min/1e6 cells

Cc1c(Sc2ccc(Cl)cc2)c2cc(F)ccc2n1CC(=O)O
microsomal CLint [1]: < 3 µL/min/mg
hepatocyte CLint [2]: 34 µL/min/1e6 cells

Cc1ccc(S(=O)(=O)Nc2c(C(=O)N[C@@H](C)C(C)(C)C)c(C)nn2C2CCOC2)cc1 (stereo partly specified)
logD ([3]; pH 7.4, LogD7.4): 0.78
fraction unbound at 5 h ([4]; PPB): 0.0736
hepatocyte CLint [2]: < 3 µL/min/1e6 cells

CC(=O)Nc1ccc2ccn(-c3cc(NC4COC4)n4ncc(C#N)c4n3)c2c1
logD ([3]; pH 7.4, LogD7.4): 2.24
fraction unbound at 5 h ([4]; PPB): 0.124
hepatocyte CLint [2]: 21.9 µL/min/1e6 cells

CC(=O)Nc1ccc2c(c1)c(-c1cc(NC3CC3)n3ncc(C#N)c3n1)cn2CCCO
logD ([3]; pH 7.4, LogD7.4): 2.48
fraction unbound at 5 h ([4]; PPB): 0.0119
hepatocyte CLint [2]: 12.3 µL/min/1e6 cells

CO[C@H]1CC[C@]2(CC1)Cc1ccc(-c3cc(Cl)cc(C#N)c3)cc1C21N=C(C)C(N)=N1 (stereo partly specified)
logD ([3]; pH 7.4, LogD7.4): 3.8
fraction unbound at 5 h ([4]; PPB): 0.0209
hepatocyte CLint [2]: 12.6 µL/min/1e6 cells

Cc1cccc(C[C@@H](C(=O)O)N2CCC(CN3CCC(Oc4ccc(Cl)c(Cl)c4)CC3)CC2)c1
microsomal CLint [1]: < 3 µL/min/mg
hepatocyte CLint [2]: < 3 µL/min/1e6 cells

Cc1cc(F)ccc1OC1CCN(CC2CCN([C@@H](Cc3ccc(F)cc3)C(=O)O)CC2)CC1
microsomal CLint [1]: < 3 µL/min/mg
hepatocyte CLint [2]: < 3 µL/min/1e6 cells

O=C(O)Cc1ccccc1N1CCC(CN2CCC(Oc3ccc(Cl)c(Cl)c3)CC2)CC1
microsomal CLint [1]: < 3 µL/min/mg
hepatocyte CLint [2]: < 3 µL/min/1e6 cells

Nc1nnc(CCSCCc2nnc(NC(=O)Cc3ccccc3)s2)s1
microsomal CLint [1]: 55 µL/min/mg
hepatocyte CLint [2]: 72.4 µL/min/1e6 cells

Cc1cn([C@H]2CCCN([C@@H](CC(C)(C)C)c3ccc(C(=O)O)c(Oc4cccc(Br)c4)c3)C2)c(=O)[nH]c1=O
logD ([3]; pH 7.4, LogD7.4): 1.12
fraction unbound at 5 h ([4]; PPB): 0.0099
hepatocyte CLint [2]: < 3 µL/min/1e6 cells

CCC(CC)C[C@H](c1ccc(C(=O)O)c(Oc2cccc(Cl)c2)c1)N1CCC[C@H](n2cc(C)c(=O)[nH]c2=O)C1
logD ([3]; pH 7.4, LogD7.4): 1.68
fraction unbound at 5 h ([4]; PPB): 0.0119
hepatocyte CLint [2]: 36.3 µL/min/1e6 cells

CCCC(C)(C)C[C@H](c1ccc(C(=O)O)c(Oc2cccc(Cl)c2)c1)N1CCC[C@H](n2cc(C)c(=O)[nH]c2=O)C1
logD ([3]; pH 7.4, LogD7.4): 1.99
fraction unbound at 5 h ([4]; PPB): 0.0099
hepatocyte CLint [2]: 52.5 µL/min/1e6 cells

Cc1cn([C@H]2CCCN([C@H](CC3CCOCC3)c3ccc(C(=O)O)c(Oc4cccc(Cl)c4)c3)C2)c(=O)[nH]c1=O
logD ([3]; pH 7.4, LogD7.4): -0.25
fraction unbound at 5 h ([4]; PPB): 0.107
hepatocyte CLint [2]: 19.1 µL/min/1e6 cells

O=C(NCc1ccccc1)c1ccc2cccnc2c1O
microsomal CLint [1]: 49 µL/min/mg
hepatocyte CLint [2]: 22.8 µL/min/1e6 cells

COC(=O)C1=C(C)NC2=C(C(=O)CC(C)(C)C2)C1c1ccc(-c2ccc(C(F)(F)F)cc2)cc1 (stereo unspecified)
microsomal CLint [1]: 9.12 µL/min/mg
hepatocyte CLint [2]: 12.3 µL/min/1e6 cells

CCc1cccc2c1N(C)Cc1cc3c(cc1-2)OCO3
microsomal CLint [1]: 44.7 µL/min/mg
hepatocyte CLint [2]: > 150 µL/min/1e6 cells

Cc1cn([C@H]2CCCN(S(=O)(=O)c3ccc(O)c(Oc4ccc(Cl)cc4)c3)C2)c(=O)[nH]c1=O
logD ([3]; pH 7.4, LogD7.4): 2.12
fraction unbound at 5 h ([4]; PPB): 0.0139
hepatocyte CLint [2]: 89.1 µL/min/1e6 cells

Cc1cn([C@H]2CCCN(S(=O)(=O)c3ccc(O)c(Oc4cccc(Br)c4)c3)C2)c(=O)[nH]c1=O
logD ([3]; pH 7.4, LogD7.4): 2.3
fraction unbound at 5 h ([4]; PPB): 0.0139
hepatocyte CLint [2]: 38 µL/min/1e6 cells

CS(=O)(=O)Nc1ccc(CCOCCCS(=O)(=O)CCNCCc2ccc(O)c3nc(O)sc23)cc1
microsomal CLint [1]: 28 µL/min/mg
hepatocyte CLint [2]: 105 µL/min/1e6 cells

COc1ccc(N(C(C)=O)C(C(=O)NC2CCCC2)c2ccccc2F)c(OC)c1 (stereo unspecified)
microsomal CLint [1]: > 150 µL/min/mg
hepatocyte CLint [2]: > 150 µL/min/1e6 cells

COc1ccc(N(C(=O)c2ccco2)C(C(=O)NC2CCCC2)c2ccccc2F)c(OC)c1 (stereo unspecified)
microsomal CLint [1]: > 150 µL/min/mg
hepatocyte CLint [2]: > 150 µL/min/1e6 cells

C[C@@H]1CN(c2ccc(F)cc2C(F)(F)F)CCN1S(=O)(=O)c1ccc(C(N)=O)cc1Cl
microsomal CLint [1]: 6.31 µL/min/mg
hepatocyte CLint [2]: 63.1 µL/min/1e6 cells

CCCCCCCC(=O)N[C@@H](CCN)C(=O)N[C@H](C(=O)N[C@@H](CCN)C(=O)N[C@H]1CCNC(=O)[C@H](C)NC(=O)[C@H](CCN)NC(=O)[C@H](CCN)NC(=O)[C@H](CC(C)C)NC(=O)[C@@H](Cc2ccccc2)NC(=O)[C@H](CCN)NC1=O)[C@@H](C)O (HELM PEPTIDE1{[CCCCCCCC(=O)[*:2]].[Dab].T.[Dab].[Dab].[Dab].[dF].L.[Dab].[Dab].A}$PEPTIDE1,PEPTIDE1,5:R3-11:R2$$$V2.0)
fraction unbound at 5 h ([4]; PPB): 0.0581
hepatocyte CLint [2]: < 3 µL/min/1e6 cells

C[C@@]1(C(=O)Nc2ccc(F)nc2)CCCN1c1nc(Nc2cc(C3CC3)n[nH]2)c2cccn2n1 [BMS-754807]
logD ([3]; pH 7.4, LogD7.4): 3.16
fraction unbound at 5 h ([4]; PPB): 0.0209
hepatocyte CLint [2]: 70.8 µL/min/1e6 cells

CC(=O)N[C@@H](CCN)C(=O)N[C@H](C(=O)N[C@@H](CCN)C(=O)N[C@H]1CCNC(=O)[C@H]([C@@H](C)O)NC(=O)[C@H](CCN)NC(=O)[C@H](CCN)NC(=O)[C@H](CC(C)C)NC(=O)[C@@H](Cc2ccccc2)NC(=O)[C@H](CCN)NC1=O)[C@@H](C)O [DEACYL POLYMYXIN B] (HELM PEPTIDE1{[ac].[Dab].T.[Dab].[Dab].[Dab].[dF].L.[Dab].[Dab].T}$PEPTIDE1,PEPTIDE1,5:R3-11:R2$$$V2.0)
fraction unbound at 5 h ([4]; PPB): 0.355
hepatocyte CLint [2]: < 3 µL/min/1e6 cells

N#CCNC(=O)c1ccc(-c2ccnc(Nc3ccc(N4CCOCC4)cc3)n2)cc1 [MOMELOTINIB]
logD ([3]; pH 7.4, LogD7.4): 2.37
fraction unbound at 5 h ([4]; PPB): 0.103
hepatocyte CLint [2]: 5.13 µL/min/1e6 cells

CC(=O)[C@@]1(O)CC[C@H]2[C@@H]3CCC4=CC(=O)CCC4=C3[C@@H](c3ccc(N(C)C)cc3)C[C@@]21C [ULIPRISTAL]
fraction unbound at 5 h [4]: 0.0049
hepatocyte CLint [2]: > 150 µL/min/1e6 cells

CN[C@@H](C)C(=O)N[C@H]1CN(C(=O)CC(C)C)CC[C@H]2CC[C@@H](C(=O)NC(c3ccccc3)c3ccccc3)N2C1=O [XEVINAPANT]
logD ([3]; pH 7.4, LogD7.4): 1.82
fraction unbound at 5 h ([4]; PPB): 0.253
hepatocyte CLint [2]: 17 µL/min/1e6 cells
